# Laboratory results: patent US6822003B2, “Aldose reductase inhibitor and process for preparation thereof” (Council of Scientific and Industrial Research, priority 2001, dated 2004)
# Legend:
# diabetic rats = conditions: via an intragastric tube, compared with ONO-2235; cited from earlier work
# solubility in solvents = assay type: physicochemical
# [1] = target: rat lens aldose reductase (Rattus norvegicus, UniProt P07943); experiment: rat lens aldose reductase inhibition, decrease in absorbence at 340 nm; assay type: biochemical; conditions: DL-glyceraldehyde substrate, 25° C., pH 7.0; read-out: IC50 against rat lens aldose reductase inhibitory activity
# Description: Lens were collected from rat eyes and homogenized with sodium, potassium phosphate buffer (0.135 M, pH 7.0) containing 0.5 mM of phenyl methyl sulphonyl fluoride and 10 mM of β-mercaptoethanol. The homogenate was centrifuged at 10,000 r.p.m for 30 minutes at 4° C. The supernatant was taken as enzyme source. Enzyme reaction was carried out at 25° C. in a quartz cuvette with a 1 cm light path. The assay mixture contained 100 μL of nicotinamide adenine dinucleotide phosphate tetra sodium salt (from a stock solution of 9.6 mM), 100 μL of DL-glyceraldehyde (from a stock solution of 250 mM), 10 μL of inhibitor dissolved in dimethyl sulphoxide, sodium-potassium-phosphate buffer (0.135 M, pH 7.0) to make up the total volume to 3 mL and the reaction was initiated by the addition of 200 μL of enzyme solution. The enzyme reaction was monitored by the decrease in absorbence at 340 nm and compared with enzyme reaction without inhibitor.
SMILES,"suppression of sorbitol accumulation in the red blood cells, the sciatic nerve, and the lens (diabetic rats)",solubility in chloroform and hexane (solubility in solvents; chloroform and hexane),"solubility in methanol, ethyl acetate, dimethyl sulphoxide, diethyl ether, sodium bicarbonate, sodium carbonate and sodium hydroxide solution (solubility in solvents; organic solvents and alkaline solutions)",solubility in water (solubility in solvents; water),IC50 [1]
"O=C(/C=C/c1ccc(O)cc1)c1ccc(O)cc1O [Isoliquiritigenin, isoliquiritigenin]","suppressed sorbitol accumulation in the red blood cells, the sciatic nerve, and the lens as effectively as ONO-2235",,,,
"CCCCCCOc1cc(O)cc2c1C(=O)C(O)=CC2=O [Compound 1, 2, 6, dihydroxy, 8, hexoxy, 1, 4, naphthaquinone]",,slightly soluble,soluble,insoluble,26.2 µM
